Data from article PMC5665643, “CHIP as a membrane-shuttling proteostasis sensor” (eLife, 2017).
“Also recorded” adds a separate entry of the source.

Assays:
[1] = system: EGFP-CHIP in murine embryonic fibroblasts; assay: EGFP-CHIP relocalization to membranes in murine embryonic fibroblasts (fluorescence microscopy); format: cell-based; details: N = 3; for EGFP-CHIP relocalization to the plasma membrane: 20 μM inhibitor for 4 hr, 37°C, serum-free medium, without fixation, EGFP as control, ***p<0.001, chi-square
[2] = system: EGFP-CHIP-K30A in murine embryonic fibroblasts; assay: Release of EGFP-CHIP-K30A from cellular membranes (PLD inhibitors); format: cell-based; details: 12 hr inhibitor treatment in serum-free DMEM, without fixation; *p<0.05 (chi-square); N = 4
CHIP [3] = assay: Lipid-binding assay (membrane-immobilized lipids, lipid arrays); design: species or system Human; details: for CHIP binding to phospholipid on lipid array: lipid strips/PIP strips, 0.5 µg/ml wild-type chaperone-free CHIP, 1 hr at RT, anti-C-CHIP antibody
Description: (§1) Human recombinant full length CHIP and its truncated versions were purified from Escherichia coli BL21 cells using Glutathion Sepharose 4B (GE Healthcare). Sepharose-bound GST-CHIP was subjected to overnight treatment with PreScission protease and the released tag-free protein was collected. Size exclusion chromatography on a HiLoad Superdex 200 column (GE Healthcare) followed to ensure the purity and homogeneity of proteins. All CHIP variants were kept in HSP70 buffer (25 mM HEPES KOH pH 7.5, 150 mM KCl, 5 mM MgCl2, 5% glycerol, 1 mM DTT).
Membrane-immobilized lipids (Membrane lipid strips P-6002 and PIP strips P-6001) were purchased from Echelon Research Laboratories. The strips were incubated with blocking buffer (3% fatty acid free BSA, 0.1% (v/v) Tween-20 in PBS pH 7.5) for 1 hr at RT. 0.5 µg/ml of purified wild-type or mutant CHIP was added in blocking buffer and incubated for 1 hr at RT. Strips were washed and bound proteins were detected using anti-C-CHIP antibody. For competition experiments, ten times molar excess of C-terminal HSP70 was added to CHIP in blocking buffer.

CHIP [4] = assay: Liposome pelleting assay, effect of lipids and HSP70-C on CHIP association; format: binding, Human
Description: as §1
Human C-terminal HSP70 6xHis-tagged N-terminally was purified from Escherichia coli BL21 cells using 1 ml HisTrap column (GE Healthcare). Bound protein was eluted by applying an imidazole gradient. Fractions containing the protein were subjected to size exclusion chromatography using HiLoad Superdex 200 in HSP70 buffer. His-NQO1, His-UbcH5a, His-Uev1a and His-Ubc13 were purified similarly except that PBS/1 mM DTT was used during size exclusion chromatography. Purity of recombinant protein was evaluated by SDS-PAGE and Coomassie BB G-250 (CBB) staining. Concentration of proteins was determined measuring absorbance at 280 nm and using ProtParam (ExPASy) to calculate respective extinction coefficients. Proteins were aliquoted, snap-frozen and stored at −80°C.
Liposomes were prepared by mixing 1,2-dioleoyl-sn-glycero-3-phosphocholine (DOPC) with indicated amount (wt/wt) of either 1,2-dipalmitoyl-sn-glycero-3-phosphate (phosphatidic acid) or (wt/wt) 1,2-dipalmitoyl-sn-glycero-3-phosphoinositol-4-phosphate (PI4P) in a 1.5 ml reaction tube (Eppendorf). Lipid mixtures were dried under a nitrogen stream and kept for 1 hr under vacuum. Liposomes were rehydrated in 1 ml filtered reconstitution buffer (25 mM HEPES KOH pH 7.5, 50 mM NaCl) to a concentration of 10 mM lipids. Liposomes were reconstituted by shaking at 2000 rpm for 1 hr at 50°C, followed by sonication for 1 hr at 50°C in a water bath. The liposome suspension was subjected to five freeze-thaw cycles in liquid nitrogen to promote unilamellar vesicle formation, aliquoted in 200 µl and pulse-sonicated for 8 s at 45% output with MS72 sonotrode (Bandelin) to create a population of homogenously sized liposomes as determined using NanoSight (Malvern Instruments). Sonicated liposomes were pooled, aliquoted again, snap-frozen and stored at −80°C.
2 mM liposomes were mixed with 2 µM recombinant protein in 50 µl reconstitution buffer. The suspension was incubated shaking at 450 rpm for 30 min at 37°C. Liposomes with bound protein were sedimented by ultracentrifugation at 100,000 g for 30 min at 25°C. Liposome pellet was washed with 50 µl of reconstitution buffer and sedimented again at 100,000 g for 30 min at 25°C. The pellet was resuspended in 10 µl reconstitution buffer, resolved by SDS-PAGE and analyzed by CBB staining. Images were acquired with ChemiDoc MP imaging system and quantified using Image Lab 5.0 software (both from Bio-Rad Laboratories). For competition assays, indicated amounts of C-terminal HSP70 were preincubated with 2 µM CHIP for 20 min at 37°C prior to co-sedimentation.

[5] = biological target: C-terminal Hsp70-interacting protein (CHIP), human recombinant full length, wild type, tag-free (human) (UniProt Q9UNE7)
[6] = biological target: T1, C-terminal Hsp70-interacting protein (CHIP), human recombinant full length, wild type, tag-free (human, UniProt Q9UNE7 1-303); assay: ITC; 10 µM protein in the cell, 200 µM GPTIEEVD peptide in the syringe, 25 injections of 8 µl every 3 min, 37°C, HSP70 buffer (25 mM HEPES KOH pH 7.5, 150 mM KCl, 5 mM MgCl2, 5% glycerol, 1 mM DTT); independent binding model; details: both partners purified
T1 construct: also called WT; wild-type CHIP; source: E. coli BL21, purified (Glutathion Sepharose 4B, PreScission protease, SEC on Superdex 200)
T1 sequence (looked up): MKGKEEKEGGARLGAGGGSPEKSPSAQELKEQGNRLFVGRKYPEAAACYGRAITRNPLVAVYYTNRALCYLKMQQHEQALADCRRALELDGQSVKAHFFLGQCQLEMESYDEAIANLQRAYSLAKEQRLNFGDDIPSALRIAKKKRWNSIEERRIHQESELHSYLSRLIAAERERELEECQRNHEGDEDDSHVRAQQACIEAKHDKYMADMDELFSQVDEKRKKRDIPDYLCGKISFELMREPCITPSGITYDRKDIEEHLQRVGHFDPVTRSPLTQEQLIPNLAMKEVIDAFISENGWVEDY

[7] = Liposome pelleting assay, binding of CHIP and truncated variants to liposomes; details: N = 3
From the text: For mammalian expression of EGFP, the expression vector pEGFP-N1 from Clontech (Mountain View, CA) was used. N-terminal EGFP-CHIP fusion protein was constructed by cloning human CHIP coding sequence in pEGFP-C2 vector (Clontech) using HindIII and BamHI restriction sites. A fusion between the N-terminalβ−1,4-galactosyltransferase1 and EGFP was used as a marker of the Golgi apparatus, farnesylated EGFP as a marker of plasma membrane (both constructs from Clontech). Untagged and 3xFLAG-tagged human CHIP for mammalian expression were constructed in pCMV-10 vector (Sigma-Aldrich). HSP70 was amplified from human cDNA and cloned into pcDNA3. 1 expression vector without a tag. HSP70 lacking the last amino acid (HSP70ΔD) was prepared by site-directed mutagenesis. Vectors of full-length CHIP, UbcH5a and mutant NQO1 for bacterial expression were prepared as described ([Martínez-Limón et al., 2016]). The TPR domain bacterial expression vector (TPR) was created by exchanging glutamate152 codon to a stop codon in the full-length CHIP vector. CHIP without TPR domain (ΔTPR) was cloned by deleting the sequence between serine25 and argininge130 by means of PCR. […]
Liposomes were prepared by mixing 1,2-dioleoyl-sn-glycero-3-phosphocholine (DOPC) with indicated amount (wt/wt) of either 1,2-dipalmitoyl-sn-glycero-3-phosphate (phosphatidic acid) or (wt/wt) 1,2-dipalmitoyl-sn-glycero-3-phosphoinositol-4-phosphate (PI4P) in a 1.5 ml reaction tube (Eppendorf). […] The liposome suspension was subjected to five freeze-thaw cycles in liquid nitrogen to promote unilamellar vesicle formation, aliquoted in 200 µl and pulse-sonicated for 8 s at 45% output with MS72 sonotrode (Bandelin) to create a population of homogenously sized liposomes as determined using NanoSight (Malvern Instruments). […]
2 mM liposomes were mixed with 2 µM recombinant protein in 50 µl reconstitution buffer. […] The pellet was resuspended in 10 µl reconstitution buffer, resolved by SDS-PAGE and analyzed by CBB staining. Images were acquired with ChemiDoc MP imaging system and quantified using Image Lab 5.0 software (both from Bio-Rad Laboratories). […]

Molecule: C=CCNC1=C2C[C@@H](C)C[C@H](OC)[C@H](O)[C@@H](C)/C=C(\C)[C@H](OC(N)=O)[C@@H](OC)/C=C\C=C(/C)C(=O)NC(=CC1=O)C2=O [17-AAG, 17-(Allylamino)−17-demethoxygeldanamycin]
- EGFP-CHIP relocalization to the plasma membrane [1]: mimic the heat shock effect in regard to CHIP relocalization to membranes in murine fibroblasts; also recorded: leads to the appearance of EGFP-CHIP, but not of EGFP, at the plasma membrane

Molecule: O=C(NCCN1CCC(n2c(=O)[nH]c3ccccc32)CC1)c1cc2cc(F)ccc2[nH]1 [FIPI]
- release of EGFP-CHIP-K30A from membranes into the cytosol [2]: efficiently released chaperone-free CHIP into the cytosol

Molecule: CCCCCCCCCCCCCCCC(=O)OC[C@H](COP(=O)(O)O[C@H]1[C@H](O)[C@@H](O)[C@H](OP(=O)(O)O)[C@@H](O)[C@H]1O)OC(=O)CCCCCCCCCCCCCCC [PI4P, 1,2-dipalmitoyl-sn-glycero-3-phosphoinositol-4-phosphate]
- CHIP binding to phospholipid on lipid array (CHIP [3]): especially PI4P
- CHIP association with DOPC-liposomes (pelleting), 1% PI4P (CHIP [4]; 1% PI4P, 2 mM liposomes, 2 µM CHIP, 30 min at 37°C, N = 3): weakly
- CHIP association with DOPC-liposomes (pelleting), 5% PI4P (CHIP [4]; 5% PI4P, 2 mM liposomes, 2 µM CHIP, 30 min at 37°C, ***p<0.001, N = 3): strongly enhanced association of liposomes with CHIP; also recorded: strongly enhance CHIP association with DOPC-liposomes

Molecule: N#Cc1ccc(COC[C@H]2O[C@@H](n3c(NCc4ccc(Cl)c(Cl)c4)nc4c(N)ncnc43)[C@H](O)[C@@H]2O)cc1 [VER-155008]
- EGFP-CHIP relocalization to the plasma membrane [1]: mimic the heat shock effect in regard to CHIP relocalization to membranes in murine fibroblasts; also recorded: leads to the appearance of EGFP-CHIP, but not of EGFP, at the plasma membrane

Molecule: C[C@@H](CN1CCC(n2c(=O)[nH]c3cc(Cl)ccc32)CC1)NC(=O)c1ccc2ccccc2c1 [VU0155069]
- release of EGFP-CHIP-K30A from membranes into the cytosol [2]: efficiently released chaperone-free CHIP into the cytosol

Molecule: O[As](O)O [arsenite]
- CHIP relocalization to membranes [1]: does not induce CHIP relocalization to membranes in murine fibroblasts; also recorded: not induced by arsenite treatment

Molecule: C-terminal domain of HSP70, 260 amino acids (HSP70-C) (from UniProt P0DMV8 382-641) (domain or fragment)
- association of 2 µM CHIP with liposomes in the pelleting assay after preincubation with HSP70-C (1 µM, substoichiometric, to an equimolar amount), relative to the control without HSP70-C (% of the control) [5]: 30

Molecule: HSP70-C: last 260 amino acids of human HSPA1A, C-terminal domain of HSP70
- CHIP binding to lipid arrays in the presence of HSP70-C (CHIP [3]; ten-fold molar excess HSP70-C, 0.5 µg/ml CHIP, RT): blocks interaction of CHIP with phospholipids; also recorded: complete loss of binding to phosphatidylinositol monophosphates and only residual interaction with phosphatidic acid
- inhibition of CHIP interaction with liposomes (CHIP [4]; 1 μM HSP70-C (substoichiometric), preincubated with 2 µM CHIP 20 min at 37°C, N = 4): efficiently prevented CHIP from interacting with liposomes
- CHIP association with liposomes, % of control (CHIP [4]; equimolar HSP70-C, preincubated with 2 µM CHIP 20 min at 37°C, N = 4): ca. 30%

Molecule: phosphatidylinositol-3,4,5-trisphosphate
- CHIP binding to phospholipid on lipid array (CHIP [3]): no binding to phosphatidylinositol-3,4,5-trisphosphate detected

B1: C-terminal HSP70 octapeptide GPTIEEVD (peptide)
peptide: GPTIEEVD
notes: last eight residues of HSP70 (HSPA1A); also called HSP70 peptide; HSP70 C-terminal peptide; source: synthetic peptide (custom-synthetized by GenScript)
- Kd [6]: 5 µM

B2: TPR domain: glutamate152 codon exchanged to a stop codon in full-length CHIP (protein, UniProt Q9UNE7 1-151, looked up, fragment)
chain: MKGKEEKEGGARLGAGGGSPEKSPSAQELKEQGNRLFVGRKYPEAAACYGRAITRNPLVAVYYTNRALCYLKMQQHEQALADCRRALELDGQSVKAHFFLGQCQLEMESYDEAIANLQRAYSLAKEQRLNFGDDIPSALRIAKKKRWNSIE
modifications: TPR domain
notes: glutamate152 codon exchanged to a stop codon in full-length CHIP
- binding capacity versus full-length CHIP ([7]; 5% PA-containing DOPC-liposomes): still surpassed the full-length CHIP in binding capacity
- binding efficiency relative to full-length protein ([7]; isolated TPR domain, 20% PA-containing liposomes, 2 µM protein): ca. 160%
